Experimental data taken from US10758534B2 (Vertex Pharmaceuticals Incorporated, priority 2014, dated 2020).

Biological target: T1, F508del (Homo sapiens, UniProt P13569, DEL508-508)
T1 construct: expressed in transfected cells
Experiment: Protocol 1: membrane potential optical assay (FLIPR III, voltage sensing dye), identification of potentiator compounds
Type: cell-based
Settings: Table 3, compounds of Table 1
Summary of the method: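 Mouse NIH 3T3 fibroblasts stably expressing F508del, temperature-corrected at 27 °C for 24 h, pretreated with compound, then loaded with voltage-sensing redistribution dye. Forskolin was added in a single step with a chloride gradient (chloride-free gluconate bath; Bath Solution #1 HEPES pH 7.4). Membrane-potential fluorescence read on FLIPR III.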

T1 sequence (P13569 with tags, fused parts or gaps DEL508-508): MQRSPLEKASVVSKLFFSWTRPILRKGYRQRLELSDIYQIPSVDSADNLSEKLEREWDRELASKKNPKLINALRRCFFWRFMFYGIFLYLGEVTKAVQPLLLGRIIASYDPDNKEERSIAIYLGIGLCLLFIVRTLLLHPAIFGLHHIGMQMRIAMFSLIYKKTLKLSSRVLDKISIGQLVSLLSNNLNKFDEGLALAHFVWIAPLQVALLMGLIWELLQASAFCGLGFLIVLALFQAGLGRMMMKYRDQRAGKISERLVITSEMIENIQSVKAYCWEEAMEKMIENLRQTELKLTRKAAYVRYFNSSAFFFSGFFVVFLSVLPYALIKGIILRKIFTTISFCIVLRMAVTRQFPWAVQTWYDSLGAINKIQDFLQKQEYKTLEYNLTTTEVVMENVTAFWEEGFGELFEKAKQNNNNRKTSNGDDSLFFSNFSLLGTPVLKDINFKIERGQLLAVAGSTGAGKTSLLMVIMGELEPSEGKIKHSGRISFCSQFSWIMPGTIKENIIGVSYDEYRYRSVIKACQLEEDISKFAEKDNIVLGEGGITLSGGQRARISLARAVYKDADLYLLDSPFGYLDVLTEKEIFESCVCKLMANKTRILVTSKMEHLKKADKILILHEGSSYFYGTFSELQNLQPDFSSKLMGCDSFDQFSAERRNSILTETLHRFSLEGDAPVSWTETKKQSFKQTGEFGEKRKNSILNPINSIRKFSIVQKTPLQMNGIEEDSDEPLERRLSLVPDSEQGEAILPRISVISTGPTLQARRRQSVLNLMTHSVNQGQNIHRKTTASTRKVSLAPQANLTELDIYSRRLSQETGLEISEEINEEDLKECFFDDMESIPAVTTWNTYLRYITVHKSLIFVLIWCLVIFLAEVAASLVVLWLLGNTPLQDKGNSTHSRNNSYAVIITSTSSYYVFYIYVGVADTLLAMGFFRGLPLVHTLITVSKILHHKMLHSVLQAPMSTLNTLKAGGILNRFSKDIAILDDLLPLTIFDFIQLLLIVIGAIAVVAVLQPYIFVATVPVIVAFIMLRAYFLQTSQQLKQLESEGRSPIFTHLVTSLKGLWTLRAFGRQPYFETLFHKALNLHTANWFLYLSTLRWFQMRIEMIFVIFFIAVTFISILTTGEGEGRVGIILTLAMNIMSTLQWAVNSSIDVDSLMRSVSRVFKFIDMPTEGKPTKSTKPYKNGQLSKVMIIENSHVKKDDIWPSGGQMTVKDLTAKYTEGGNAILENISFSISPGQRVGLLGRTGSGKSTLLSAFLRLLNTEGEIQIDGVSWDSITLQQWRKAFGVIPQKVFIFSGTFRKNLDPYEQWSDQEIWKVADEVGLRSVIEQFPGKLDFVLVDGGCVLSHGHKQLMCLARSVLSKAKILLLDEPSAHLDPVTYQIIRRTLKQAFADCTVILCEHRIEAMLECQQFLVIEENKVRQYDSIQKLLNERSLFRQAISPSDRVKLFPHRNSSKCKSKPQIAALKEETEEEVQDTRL

Structure (SMILES) | EC30
CC1CN(c2ncccc2C(=O)NS(=O)(=O)c2cccc(Nc3cc(F)ccc3Cl)n2)C(C)(C)C1 (stereo not shown) [Compound 1941, N—[[6-(2-chloro-5-fluoro-anilino)-2-pyridyl]sulfonyl]-2-(2,2,4-trimethylpyrrolidin-1-yl)pyridine-3-carboxamide] | +++ (“+++” means <3 uM)
C[C@@H]1CN(c2nc(C3=CCCN(S(=O)(=O)N4CCCCC4)C3)ccc2C(=O)NS(=O)(=O)c2cccc(N)n2)C(C)(C)C1 [Compound 1942, N-[(6-amino-2-pyridyl)sulfonyl]-6-[1-(1-piperidylsulfonyl)-3,6-dihydro-2H-pyridin-5-yl]-2-[(4S)-2,2,4-trimethylpyrrolidin-1-yl]pyridine-3-carboxamide] | ++ (“++” means between 3 uM and 10 uM)
COCCOCc1cccc(-c2cnc(N3CC(C)CC3(C)C)c(C(=O)NS(=O)(=O)c3cccc(N)n3)c2)c1 (stereo not shown) [Compound 1943, N-[(6-amino-2-pyridyl)sulfonyl]-5-[3-(2-methoxyethoxymethyl)phenyl]-2-(2,2,4-trimethylpyrrolidin-1-yl)pyridine-3-carboxamide] | ++ (“++” means between 3 uM and 10 uM)
Cc1c(F)cccc1-c1ccc(C(=O)NS(=O)(=O)c2cccnc2N)c(N2C[C@@H](C)CC2(C)C)n1 [Compound 1944, N-[(2-amino-3-pyridyl)sulfonyl]-6-(3-fluoro-2-methyl-phenyl)-2-[(4S)-2,2,4-trimethylpyrrolidin-1-yl]pyridine-3-carboxamide] | +++ (“+++” means <3 uM)
CCOc1ccc(-c2ccc(C(=O)NS(=O)(=O)c3cccnc3N)c(N3C[C@@H](C)CC3(C)C)n2)cc1 [Compound 1945, N-[(2-amino-3-pyridyl)sulfonyl]-6-(4-ethoxyphenyl)-2-[(4S)-2,2,4-trimethylpyrrolidin-1-yl]pyridine-3-carboxamide] | +++ (“+++” means <3 uM)
Cc1ccc(F)c(-c2ccc(C(=O)NS(=O)(=O)c3ccc[nH]c3=O)c(N3C[C@@H](C)CC3(C)C)n2)c1 [Compound 1946, 6-(2-fluoro-5-methyl-phenyl)-N-[(2-oxo-1H-pyridin-3-yl)sulfonyl]-2-[(4S)-2,2,4-trimethylpyrrolidin-1-yl]pyridine-3-carboxamide] | +++ (“+++” means <3 uM)
C[C@@H]1CN(c2nc(-c3ccc(F)cc3F)ccc2C(=O)NS(=O)(=O)N2CC[C@H](N)C2)C(C)(C)C1 [Compound 1947, N-[(3S)-3-aminopyrrolidin-1-yl]sulfonyl-6-(2,4-difluorophenyl)-2-[(4S)-2,2,4-trimethylpyrrolidin-1-yl]pyridine-3-carboxamide] | ++ (“++” means between 3 uM and 10 uM)
CCOCCOc1cc(-c2ccc(C(=O)NS(=O)(=O)c3cccc(N)n3)c(N3C[C@@H](C)CC3(C)C)n2)cc(C)n1 [Compound 1948, N-[(6-amino-2-pyridyl)sulfonyl]-6-[2-(2-ethoxyethoxy)-6-methyl-4-pyridyl]-2-[(4S)-2,2,4-trimethylpyrrolidin-1-yl]pyridine-3-carboxamide] | +++ (“+++” means <3 uM)
CC(=O)c1cccc(Nc2cccc(S(=O)(=O)NC(=O)c3cccnc3N3CC(C)CC3(C)C)n2)c1 (stereo not shown) [Compound 1949, N—[[6-(3-acetylanilino)-2-pyridyl]sulfonyl]-2-(2,2,4-trimethylpyrrolidin-1-yl)pyridine-3-carboxamide] | +++ (“+++” means <3 uM)
CC1CN(c2ncc(-c3cccc(C(F)(F)F)c3)cc2C(=O)NS(=O)(=O)c2cccc(N)n2)C(C)(C)C1 (stereo not shown) [Compound 1950, N-[(6-amino-2-pyridyl)sulfonyl]-5-[3-(trifluoromethyl)phenyl]-2-(2,2,4-trimethylpyrrolidin-1-yl)pyridine-3-carboxamide] | +++ (“+++” means <3 uM)
Cc1ccc(C)c(-c2ccc(C(=O)NS(=O)(=O)c3cccnc3N)c(N3C[C@@H](C)CC3(C)C)n2)c1 [Compound 1951, N-[(2-amino-3-pyridyl)sulfonyl]-6-(2,5-dimethylphenyl)-2-[(4S)-2,2,4-trimethylpyrrolidin-1-yl]pyridine-3-carboxamide] | +++ (“+++” means <3 uM)
C[C@@H]1CN(c2nc(-n3ccc(OCC(C)(C)C)n3)ccc2C(=O)NS(=O)(=O)c2cccc(N)n2)C(C)(C)C1 [Compound 1952, N-[(6-amino-2-pyridyl)sulfonyl]-6-[3-(2,2-dimethylpropoxy)pyrazol-1-yl]-2-[(4S)-2,2,4-trimethylpyrrolidin-1-yl]pyridine-3-carboxamide] | +++ (“+++” means <3 uM)
CC1CN(c2ncccc2C(=O)NS(=O)(=O)c2cccc(OCc3cccc(C(F)(F)F)c3)n2)C(C)(C)C1 (stereo not shown) [Compound 1953, N—[[6-[[3-(trifluoromethyl)phenyl]methoxy]-2-pyridyl]sulfonyl]-2-(2,2,4-trimethylpyrrolidin-1-yl)pyridine-3-carboxamide] | +++ (“+++” means <3 uM)
C[C@@H]1CN(c2nc(-c3cc(F)ccc3F)ccc2C(=O)NS(=O)(=O)c2ccc[nH]c2=O)C(C)(C)C1 [Compound 1954, 6-(2,5-difluorophenyl)-N-[(2-oxo-1H-pyridin-3-yl)sulfonyl]-2-[(4S)-2,2,4-trimethylpyrrolidin-1-yl]pyridine-3-carboxamide] | +++ (“+++” means <3 uM)
CC1CN(c2ncccc2C(=O)NS(=O)(=O)c2cccc(Oc3cccc4c3CCCC4)n2)C(C)(C)C1 (stereo not shown) [Compound 1955, N-[(6-tetralin-5-yloxy-2-pyridyl)sulfonyl]-2-(2,2,4-trimethylpyrrolidin-1-yl)pyridine-3-carboxamide] | +++ (“+++” means <3 uM)
CC(C)COc1cc(F)cc(-c2ccc(C(=O)NS(=O)(=O)N3CCC(F)(F)C3)c(N3C[C@@H](C)CC3(C)C)n2)c1 [Compound 1956, N-(3,3-difluoropyrrolidin-1-yl)sulfonyl-6-(3-fluoro-5-isobutoxy-phenyl)-2-[(4S)-2,2,4-trimethylpyrrolidin-1-yl]pyridine-3-carboxamide] | +++ (“+++” means <3 uM)
CC1CN(c2ncccc2C(=O)NS(=O)(=O)c2cccc(Oc3cncc(Cl)c3)n2)C(C)(C)C1 (stereo not shown) [Compound 1957, N—[[6-[(5-chloro-3-pyridyl)oxy]-2-pyridyl]sulfonyl]-2-(2,2,4-trimethylpyrrolidin-1-yl)pyridine-3-carboxamide] | ++ (“++” means between 3 uM and 10 uM)
C[C@@H]1CN(c2nc(-c3ccccc3)ccc2C(=O)NS(=O)(=O)c2cccnc2N)C(C)(C)C1 [Compound 1958, N-[(2-amino-3-pyridyl)sulfonyl]-6-phenyl-2-[(4S)-2,2,4-trimethylpyrrolidin-1-yl]pyridine-3-carboxamide] | +++ (“+++” means <3 uM)
COc1ccccc1Nc1cccc(S(=O)(=O)NC(=O)c2cccnc2N2CC(C)CC2(C)C)n1 (stereo not shown) [Compound 1959, N—[[6-(2-methoxyanilino)-2-pyridyl]sulfonyl]-2-(2,2,4-trimethylpyrrolidin-1-yl)pyridine-3-carboxamide] | +++ (“+++” means <3 uM)
C[C@@H]1CN(c2nc(-c3ccccc3C(F)(F)F)ccc2C(=O)NS(=O)(=O)c2ccc[nH]c2=O)C(C)(C)C1 [Compound 1960, N-[(2-oxo-1H-pyridin-3-yl)sulfonyl]-6-[2-(trifluoromethyl)phenyl]-2-[(4S)-2,2,4-trimethylpyrrolidin-1-yl]pyridine-3-carboxamide] | +++ (“+++” means <3 uM)
CC(C)COc1cc(F)cc(-c2ccc(C(=O)NS(=O)(=O)c3cccc(N)n3)c(C3=C[C@H](C)CC3(C)C)n2)c1 [Compound 1961] | +++ (“+++” means <3 uM)
COc1ccccc1-c1ccc(C(=O)NS(=O)(=O)c2cccnc2N)c(N2C[C@@H](C)CC2(C)C)n1 [Compound 1962, N-[(2-amino-3-pyridyl)sulfonyl]-6-(2-methoxyphenyl)-2-[(4S)-2,2,4-trimethylpyrrolidin-1-yl]pyridine-3-carboxamide] | +++ (“+++” means <3 uM)
Cc1cc(Cl)cc(-c2cnc(N3CC(C)CC3(C)C)c(C(=O)NS(=O)(=O)c3cccc(N)n3)c2)c1 (stereo not shown) [Compound 1963, N-[(6-amino-2-pyridyl)sulfonyl]-5-(3-chloro-5-methyl-phenyl)-2-(2,2,4-trimethylpyrrolidin-1-yl)pyridine-3-carboxamide] | +++ (“+++” means <3 uM)
CCOc1ccc(C)cc1-c1ccc(C(=O)NS(=O)(=O)c2cccnc2N)c(N2C[C@@H](C)CC2(C)C)n1 [Compound 1964, N-[(2-amino-3-pyridyl)sulfonyl]-6-(2-ethoxy-5-methyl-phenyl)-2-[(4S)-2,2,4-trimethylpyrrolidin-1-yl]pyridine-3-carboxamide] | +++ (“+++” means <3 uM)
COc1ccccc1COc1cccc(S(=O)(=O)NC(=O)c2cccnc2N2CC(C)CC2(C)C)n1 (stereo not shown) [Compound 1965, N-[[6-[(2-methoxyphenyl)methoxy]-2-pyridyl]sulfonyl]-2-(2,2,4-trimethylpyrrolidin-1-yl)pyridine-3-carboxamide] | +++ (“+++” means <3 uM)
CC(Oc1nc(N2C[C@@H](C)CC2(C)C)c(C(=O)NS(=O)(=O)c2cccc(N)n2)cc1F)C1CCCC1 (stereo partly drawn) [Compound 1966, N-[(6-amino-2-pyridyl)sulfonyl]-6-(1-cyclopentylethoxy)-5-fluoro-2-[(4S)-2,2,4-trimethylpyrrolidin-1-yl]pyridine-3-carboxamide] | +++ (“+++” means <3 uM)
Cc1ccc(-c2ccc(C(=O)NS(=O)(=O)N3CC[C@H](N)C3)c(N3C[C@@H](C)CC3(C)C)n2)c(F)c1 [Compound 1967, N-[(3S)-3-aminopyrrolidin-1-yl]sulfonyl-6-(2-fluoro-4-methyl-phenyl)-2-[(4S)-2,2,4-trimethylpyrrolidin-1-yl]pyridine-3-carboxamide] | ++ (“++” means between 3 uM and 10 uM)
CC1CN(c2ncccc2C(=O)NS(=O)(=O)c2cccc(NCc3ccc(Cl)cc3Cl)n2)C(C)(C)C1 (stereo not shown) [Compound 1968, N—[[6-[(2,4-dichlorophenyl)methylamino]-2-pyridyl]sulfonyl]-2-(2,2,4-trimethylpyrrolidin-1-yl)pyridine-3-carboxamide] | +++ (“+++” means <3 uM)
